Experimental data reported in patent US11739100B2, “2,3-dihydro-1h-imidazo{1,2-a}pyrimidin-5-one and this 1,2,3,4-tetrahydropyrimido{1,2-a}pyrimidin-6-one derivatives comprising a substituted morpholine, preparation thereof and pharmaceutical use thereof” (SANOFI, priority 2012, dated 2023).

target: T1, recombinant Vps34 (Homo sapiens, UniProt Q8NEB9); experiment: Phosphorylation of phosphatidylinositol (PI) by Vps34 in vitro, ADP detected by TR-FRET (HTRF Transcreener ADP); type: biochemical; conditions: 10 μM ATP, 55 μg/ml PI, approximately 3 nM Vps34, 1 hour at ambient temperature; absolute IC50, mean of two independent experiments; read-out: IC50 activity range
T1 construct: purchased Invitrogen PV5126
T1 sequence (Q8NEB9 whole entry): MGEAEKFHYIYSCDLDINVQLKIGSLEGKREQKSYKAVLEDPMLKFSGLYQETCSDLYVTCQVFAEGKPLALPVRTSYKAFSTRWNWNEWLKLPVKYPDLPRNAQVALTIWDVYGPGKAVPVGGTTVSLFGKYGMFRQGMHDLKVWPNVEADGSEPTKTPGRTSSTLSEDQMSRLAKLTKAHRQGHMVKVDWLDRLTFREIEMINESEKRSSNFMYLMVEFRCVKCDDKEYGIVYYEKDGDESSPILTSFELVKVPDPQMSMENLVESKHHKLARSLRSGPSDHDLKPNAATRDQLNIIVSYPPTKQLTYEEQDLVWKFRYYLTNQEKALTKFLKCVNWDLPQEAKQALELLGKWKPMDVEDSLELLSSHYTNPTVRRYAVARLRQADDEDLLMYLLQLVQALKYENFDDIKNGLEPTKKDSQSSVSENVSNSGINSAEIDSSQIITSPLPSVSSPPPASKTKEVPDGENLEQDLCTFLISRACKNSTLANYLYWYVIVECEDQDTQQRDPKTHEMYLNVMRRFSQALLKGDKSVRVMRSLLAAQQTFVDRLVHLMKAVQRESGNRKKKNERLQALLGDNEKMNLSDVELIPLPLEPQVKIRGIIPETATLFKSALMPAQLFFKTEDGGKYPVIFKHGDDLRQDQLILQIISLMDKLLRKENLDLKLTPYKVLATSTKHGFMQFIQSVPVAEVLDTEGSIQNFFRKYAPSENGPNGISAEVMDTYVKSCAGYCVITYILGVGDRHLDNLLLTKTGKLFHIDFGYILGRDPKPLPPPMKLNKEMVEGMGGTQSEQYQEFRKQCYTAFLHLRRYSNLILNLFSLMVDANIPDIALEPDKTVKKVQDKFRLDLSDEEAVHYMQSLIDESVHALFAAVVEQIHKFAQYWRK

IC50 [nM]	SMILES
< 10	CCOC(=O)CN1c2nc(N3CCOC[C@H]3C)cc(=O)n2CC[C@H]1C(F)(F)F [Example 14, [(S)-8-((R)-3-Methyl-morpholin-4-yl)-6-oxo-2-trifluoromethyl-3,4-dihydro-2H,6H-pyrimido[1,2-a]-pyrimidin-1-yl]acetic acid ethyl ester]
< 10	C[C@@H]1COC[C@@H](C)N1c1cc(=O)n2c(n1)N(Cc1ccnc(Cl)c1)[C@H](C(F)(F)F)CC2 [Example 157, (S)-9-(2-Chloro-pyridin-4-ylmethyl)-2-((3R,5R)-3,5-dimethyl-morpholin-4-yl)-8-trifluoromethyl-6,7,8,9-tetrahydro-pyrimido[1,2-a]-pyrimidin-4-one]
< 10	C[C@@H]1COCCN1c1nc2n(c(=O)c1F)CC[C@@H](C(F)(F)F)N2Cc1nccs1 [Example 232, (S)-3-Fluoro-2-((R)-3-methylmorpholin-4-yl)-9-thiazol-2-ylmethyl-8-trifluoromethyl-6,7,8,9-tetrahydro-pyrimido[1,2-a]-pyrimidin-4-one]
< 10	C[C@@H]1COCCN1c1cc(=O)n2c(n1)N(Cc1ccn(C(F)F)n1)[C@H](C(F)(F)F)CC2 [Example 32, (S)-9-(1-Difluoromethyl-1H-pyrazol-3-ylmethyl)-2-((R)-3-methyl-morpholin-4-yl)-8-trifluoromethyl-6,7,8,9-tetrahydro-pyrimido[1,2-a]-pyrimidin-4-one]
10 to 100	CONC(=O)CN1c2nc(N3CCOC[C@H]3C)cc(=O)n2CC[C@H]1C(F)(F)F [Example 197, N-Methoxy-2-[(S)-8-((R)-3-methyl-morpholin-4-yl)-6-oxo-2-trifluoromethyl-3,4-dihydro-2H,6H-pyrimido[1,2-a]-pyrimidin-1-yl]-acetamide]
< 10	C[C@@H]1COCCN1c1nc2n(c(=O)c1F)CC[C@@H](C(F)(F)F)N2CC(=O)N1CCCCO1 [Example 317, (S)-3-Fluoro-2-((R)-3-methylmorpholin-4-yl)-9-(2-[1,2]oxazinan-2-yl-2-oxoethyl)-8-trifluoromethyl-6,7,8,9-tetrahydropyrimido-[1,2-a]pyrimidin-4-one]
< 10	C[C@@H]1COCCN1c1cc(=O)n2c(n1)N(C[C@H](F)c1ccccc1)[C@H](C(F)(F)F)CC2 [Example 295, (S)-9-(2-Fluoro-2-phenylethyl)-2-((R)-3-methylmorpholin-4-yl)-8-trifluoromethyl-6,7,8,9-tetrahydro-pyrimido[1,2-a]-pyrimidin-4-one]
< 10	CCC(CC)C(=O)CN1c2nc(N3CCOC[C@H]3C)c(F)c(=O)n2CC[C@H]1C(F)(F)F [Example 282, (S)-9-(3-Ethyl-2-oxo-pentyl)-3-fluoro-2-((R)-3-methylmorpholin-4-yl)-8-trifluoromethyl-6,7,8,9-tetrahydro-pyrimido[1,2-a]-pyrimidin-4-one]
< 10	C[C@H](O)CN1c2nc(N3CCOC[C@H]3C)c(F)c(=O)n2CC[C@H]1C(F)(F)F [Example 8, (S)-3-Fluoro-9-((S)-2-hydroxypropyl)-2-((R)-3-methylmorpholin-4-yl)-8-trifluoromethyl-6,7,8,9-tetrahydro-pyrimido[1,2-a]-pyrimidin-4-one]
< 10	C[C@@H]1COCCN1c1nc2n(c(=O)c1F)CC[C@@H](C(F)(F)F)N2Cc1ccnc(Cl)c1 [Example 41, (S)-9-(2-Chloro-pyridin-4-ylmethyl)-3-fluoro-2-((R)-3-methyl-morpholin-4-yl)-8-trifluoromethyl-6,7,8,9-tetrahydro-pyrimido[1,2-a]-pyrimidin-4-one]
< 10	CC(C)C(=O)CN1CC[C@H](C(F)(F)F)n2c1nc(N1CCOC[C@H]1C)c(F)c2=O [Example 128, (R)-3-Fluoro-2-((R)-3-methylmorpholin-4-yl)-9-(3-methyl-2-oxo-butyl)-6-trifluoromethyl-6,7,8,9-tetrahydro-pyrimido[1,2-a]-pyrimidin-4-one]
10 to 100	CC1CN(c2cc(=O)n3c(n2)N(CC(=O)c2ccccn2)[C@H](C(F)(F)F)CC3)CCO1 (single isomer, unassigned) [Example 174]
< 10	C[C@@H]1COCCN1c1nc2n(c(=O)c1F)CC[C@@H](C(F)(F)F)N2Cc1cncc(F)c1 [Example 57, (S)-3-Fluoro-9-(5-fluoropyridin-3-yl-methyl)-2-((R)-3-methylmorpholin-4-yl)-8-trifluoromethyl-6,7,8,9-tetrahydro-pyrimido[1,2-a]-pyrimidin-4-one]
10 to 100	CNC(=O)CN1c2nc(N3CCOC[C@H]3C)cc(=O)n2CC[C@H]1C(F)(F)F [Example 223, N-Methyl-2-[(S)-8-((R)-3-methylmorpholin-4-yl)-6-oxo-2-trifluoromethyl-3,4-dihydro-2H,6H-pyrimido[1,2-a]-pyrimidin-1-yl]-acetamide]
< 10	C[C@@H]1COCCN1c1cc(=O)n2c(n1)N(CC(=O)OC(C)(C)C)[C@H](C(F)(F)F)CC2 [Example 260, [(S)-8-((R)-3-Methyl-morpholin-4-yl)-6-oxo-2-trifluoromethyl-3,4-dihydro-2H,6H-pyrimido[1,2-a]-pyrimidin-1-yl]acetic acid tert-butyl ester]
< 10	C[C@H](O)CN1c2nc(N3CCOC[C@H]3C)cc(=O)n2CC[C@H]1C(F)(F)F [Example 205, (S)-9-((S)-2-Hydroxy-propyl)-2-((R)-3-methylmorpholin-4-yl)-8-trifluoromethyl-6,7,8,9-tetrahydro-pyrimido[1,2-a]-pyrimidin-4-one]
< 10	C[C@@H]1COCCN1c1cc(=O)n2c(n1)N(CCC(C)(C)F)[C@H](C(F)(F)F)CC2 [Example 267, (S)-9-(3-Fluoro-3-methylbutyl)-2-((R)-3-methylmorpholin-4-yl)-8-trifluoromethyl-6,7,8,9-tetrahydro-pyrimido[1,2-a]-pyrimidin-4-one]
< 10	CC(C)CC(=O)CN1c2nc(N3CCOC[C@H]3C)cc(=O)n2CC[C@H]1C(F)(F)F [Example 276, (S)-2-((R)-3-Methyl-morpholin-4-yl)-9-(4-methyl-2-oxo-pentyl)-8-trifluoromethyl-6,7,8,9-tetrahydro-pyrimido[1,2-a]-pyrimidin-4-one]
< 10	C[C@@H]1COCCN1c1nc2n(c(=O)c1F)C[C@@](C)(C(F)(F)F)N2CC(=O)C1CC1 [Example 187, (S)-1-(2-Cyclopropyl-2-oxoethyl)-6-fluoro-2-methyl-7-((R)-3-methylmorpholin-4-yl)-2-trifluoromethyl-2,3-dihydro-1H-imidazo[1,2-a]-pyrimidin-5-one]
< 10	Cc1cc(CN2c3nc(N4CCOC[C@H]4C)c(F)c(=O)n3CC[C@H]2C(F)(F)F)on1 [Example 299, (S)-3-Fluoro-9-(3-methylisoxazol-5-yl-methyl)-2-((R)-3-methylmorpholin-4-yl)-8-trifluoromethyl-6,7,8,9-tetrahydro-pyrimido[1,2-a]-pyrimidin-4-one]
< 10	C[C@@H]1COCCN1c1cc(=O)n2c(n1)N(Cc1ccnn1C(F)F)[C@H](C(F)(F)F)CC2 [Example 37, (S)-9-(2-Difluoromethyl-2H-pyrazol-3-ylmethyl)-2-((R)-3-methyl-morpholin-4-yl)-8-trifluoromethyl-6,7,8,9-tetrahydro-pyrimido[1,2-a]-pyrimidin-4-one]
< 10	CC(C)C(F)CN1c2nc(N3CCOC[C@H]3C)cc(=O)n2CC[C@H]1C(F)(F)F (single isomer, unassigned) [Example 323]
< 10	C[C@@H]1COCCN1c1nc2n(c(=O)c1F)CC[C@@H](C(F)(F)F)N2Cc1ccon1 [Example 296, (S)-3-Fluoro-9-isoxazol-3-ylmethyl-2-((R)-3-methyl-morpholin-4-yl)-8-trifluoromethyl-6,7,8,9-tetrahydro-pyrimido[1,2-a]-pyrimidin-4-one]
< 10	C[C@@H]1COCCN1c1cc(=O)n2c(n1)N(CCc1ccccn1)[C@H](C(F)(F)F)CC2 [Example 220, (S)-2-((R)-3-Methyl-morpholin-4-yl)-9-(2-pyridin-2-ylethyl)-8-trifluoromethyl-6,7,8,9-tetrahydro-pyrimido[1,2-a]-pyrimidin-4-one]
< 10	C[C@@H]1COCCN1c1nc2n(c(=O)c1F)CC[C@@H](C(F)(F)F)N2Cc1ccno1 [Example 46, (S)-3-Fluoro-9-isoxazol-5-ylmethyl-2-((R)-3-methyl-morpholin-4-yl)-8-trifluoromethyl-6,7,8,9-tetrahydro-pyrimido[1,2-a]-pyrimidin-4-one]
< 10	CC(C)Oc1ccc(CN2c3nc(N4CCOC[C@H]4C)cc(=O)n3CC[C@H]2C(F)(F)F)cn1 [Example 229, (S)-9-(6-Isopropoxy-pyridin-3-ylmethyl)-2-((R)-3-methyl-morpholin-4-yl)-8-trifluoromethyl-6,7,8,9-tetrahydro-pyrimido[1,2-a]-pyrimidin-4-one]
< 10	CC(=O)CN1c2nc(N3CCOC[C@H]3C)cc(=O)n2CC[C@@]1(C)C(F)(F)F [Example 327, (S)-8-Methyl-2-((R)-3-methylmorpholin-4-yl)-9-(2-oxopropyl)-8-trifluoromethyl-6,7,8,9-tetrahydropyrimido-[1,2-a]pyrimidin-4-one]
> 100	C[C@@H]1COCCN1c1cc(=O)n2c(n1)N(Cc1cn3ccccc3n1)[C@H](C(F)(F)F)CC2 [Example 64, (S)-9-Imidazo[1,2-a]-pyridin-2-ylmethyl-2-((R)-3-methyl-morpholin-4-yl)-8-trifluoromethyl-6,7,8,9-tetrahydro-pyrimido[1,2-a]-pyrimidin-4-one]
< 10	C[C@@H]1COCCN1c1cc(=O)n2c(n1)N(CC(=O)c1ccc(F)cn1)[C@H](C(F)(F)F)CC2 [Example 70, (S)-9-[2-(5-Fluoro-pyridin-2-yl)-2-oxo-ethyl]-2-((R)-3-methyl-morpholin-4-yl)-8-trifluoromethyl-6,7,8,9-tetrahydro-pyrimido[1,2-a]-pyrimidin-4-one]
< 10	Cc1nc(CN2c3nc(N4CCOC[C@H]4C)cc(=O)n3C[C@@]2(C)C(F)(F)F)no1 [Example 240, (S)-2-Methyl-7-((R)-3-methylmorpholin-4-yl)-1-(5-methyl-[1,2,4]oxadiazol-3-yl-methyl)-2-trifluoromethyl-2,3-dihydro-1H-imidazo[1,2-a]-pyrimidin-5-one]
